Test results reported in patent publication US6662040B1, “Methods of photoacoustic imaging” (Amersham Health AS, priority 1997, dated 2003).
Blank lines part the entries; values can stand above or below the compound they belong to.

Experiments:
[1] = cited from earlier work
[2] = tested on: HT-29 tumors; test: Comparative biodistribution in mice containing HT-29 tumors; format: in vivo, female immunodeficient mice; settings: for detection in the tumor: PBS solution
From the text: (§1) FIG. 1a is a graph of comparative biodistribution data of contrast agent NC100448 versus indocyanine green as control in female immunodeficient mice containing HT-29 tumors at one hour post intravenous injection of phosphate buffered saline solutions of each.
as §1, with “1b” for “1a”, “three hours” for “one hour”, “each. […] Relative to FIG. 1a, the concentration of the contrast agent in the tumor has increased while the concentration in the blood has decreased.” for “each.”
Biodistribution results are presented in FIGS. 1a (one hour post-dosing) and 1b (three hours post-dosing).

[3] = not told
Procedure: Monochromatic X-rays with a photon energy of 20 to 30 keV are obtained with a double crystal monochromator using white X-rays from a sychrotron. The beam intensity is modulated by a rotating lead plate chopper with a frequency of 10 Hz. The sample chamber is a cylindrical cell with a volume of about 0.5 ml in a saline bath which has two beryllium windows. The photon flux into the sample chamber is measured with an ionization chamber placed in front.
The amplitude of the photoacoustic signal, normalized to the photon flux, is measured when the sample chamber contains the saline solution and when it contains a barium sulfate suspension.
The amplitude of the photoacoustic signal, normalized to the photon flux, is measured when the sample chamber contains the saline solution and when it contains a solution of iodixanol in PBS.

[4] = Photoacoustic imaging with infrared radiation in mice; format: in vivo, hairless, immunocompetent mice; settings: 100 μl i.v. tail vein of 4.6 mg/ml in PBS, 750 nm alexandrite laser, immediately following injection
Procedure: The dry contrast agent (4.6 mg) was dissolved immediately before use in 1 ml phosphate buffered saline (Delbecco's buffer). The solution was doubly filtered through a syringe filter with a pore size of 0.45 μm and then was stored in the dark before injection.
The test animals were hairless, immunocompetent mice weighing about 23 g, which were anaesthetized I. m. with 5 μl xylazine (Rompun) and 10 μl ketamine prior to the measurements.
The irradiating light was produced by an alexandrite laser operating at a frequency of 750 nm. The light beam was attenuated with a neutral density filter so that the energy imparted by each pulse to the skin of the mice was less than 50 millijoules.
For imaging, the mouse rested on the lithium niobate acoustic transducer. The photoacoustic signal was detected after it passed to the opposite side of the mouse from incident radiation. The signal was detected after it passed through the body of the mouse to the opposite side from the point of irradiation.
Before injection of the contrast agent, the first mouse was positioned on its back on the transducer so as to maximize the internal signal when the skin above the liver was irradiated. […] The injected dose was 100 μl injected intravenously into the tail vein with a 26 gauge needle. Immediately following injection, the mouse was again positioned for a maximum signal.

[5] = one hour post intravenous injection
[6] = three hours post intravenous injection

Compound: Oc1ccc2ccccc2c1N=Nc1ccc(N=Nc2ccccc2)cc1 [Sudan III]
solubility in sesame oil ([1]; sesame oil): soluble in sesame oil
solubility in water ([1]; water): very water insoluble

detection in the tumor [2, 5]: negligibly detected
detection in the tumor [2, 6]: negligibly detected
Compound: CC1(C)C(/C=C/C=C/C=C/C=C2\N(CCCCS(=O)(=O)O)c3ccc4ccccc4c3C2(C)C)=[N+](CCCCS(=O)(=O)[O-])c2ccc3ccccc3c21 [indocyanine green]

amplitude of the photoacoustic signal normalized to photon flux, versus saline solution [3]: larger
Compound: CC(=O)N(CC(O)CN(C(C)=O)c1c(I)c(C(=O)NCC(O)CO)c(I)c(C(=O)NCC(O)CO)c1I)c1c(I)c(C(=O)NCC(O)CO)c(I)c(C(=O)NCC(O)CO)c1I (stereo not shown) [iodixanol]

Compound: bis(thioether) 2:1 dye:polymer Reaction Product Between 2-[2-[2-chloro-3-[[1,3-dihydro-1,1,-dimethyl-3-(3-sulfopropyl)-2H-benz [e]indol-2-ylidene]ethylidene]-5-(ethoxycarbonyl)-1-cyclohexen-1-yl]ethenyl]-1,1-dimethyl-3-(3-sulfopropyl)-1H-benz[e]indolium, Inner Salt, Sodium Salt and Disodium PEG3,4000-α,ω-dithiolate [NC100448]
detection in the tumor [2, 5]: detected in the tumor
concentration in the blood relative to FIG. 1a (one hour) [2, 6]: decreased
concentration in the tumor relative to FIG. 1a (one hour) [2, 6]: increased
detection in the tumor [2, 6]: detected in the tumor
maximum detected signal from the blood vessels of the liver versus prior to injection [4]: 5 to 10 times larger
